{
  "source": "patent US7150974B1",
  "about": "“Parathyroid hormone receptor binding method” (The General Hospital Corporation, priority 1991, dated 2006)",
  "key": {"[1]": {"target": "T1, opossum kidney PTH/PTHrP receptor clone, OK-H (Didelphis virginiana, UniProt P25107, I132F/S86P)", "T1 construct": "expressed in transfected cells; host or cells: COS cells, transient, plasmid OK-H (pcDNA I)", "T1 sequence (P25107 other isoform, or with tags, fused parts or gaps S86P/I132F)": "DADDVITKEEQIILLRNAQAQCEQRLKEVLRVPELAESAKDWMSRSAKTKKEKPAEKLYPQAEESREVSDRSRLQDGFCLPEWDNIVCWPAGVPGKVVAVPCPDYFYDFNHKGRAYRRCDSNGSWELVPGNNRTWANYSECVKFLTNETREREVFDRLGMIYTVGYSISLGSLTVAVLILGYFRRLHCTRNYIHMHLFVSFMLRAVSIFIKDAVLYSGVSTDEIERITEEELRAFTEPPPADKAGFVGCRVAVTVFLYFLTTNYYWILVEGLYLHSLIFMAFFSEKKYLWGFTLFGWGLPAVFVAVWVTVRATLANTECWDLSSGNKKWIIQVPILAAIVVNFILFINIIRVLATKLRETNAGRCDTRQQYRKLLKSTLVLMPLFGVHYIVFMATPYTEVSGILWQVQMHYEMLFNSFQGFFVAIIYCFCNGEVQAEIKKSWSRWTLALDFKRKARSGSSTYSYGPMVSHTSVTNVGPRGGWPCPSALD", "experiment": "Radioreceptor assay, COS cells expressing OK-H", "type": "binding", "conditions": "FIG. 9", "experimental": "In brief, the labeled peptide was dissolved in 0.1% trifluoracetic acid (TFA), applied to a C18 Sep-pak cartridge (Waters Associates, Inc., Milford, Mass.) and eluted with a solution of 60% acetonitrile in 0.1% TFA. After lyophilization, the radioligand then was applied to C18-μBondapak column (3.9 mm×30 cm. Waters Associates) and eluted over 30 min with a linear gradient of 30-50% acetonitrile-0.1% TFA at a flow rate of 2 ml/min.\nCOS-7 cells were grown in 15 cm plates in DMEM, 10% heat-inactivated […], 10 mg/L gentamycin until 80-90% confluent. Twenty-four hours after transfection by the DEAE/Dextran method (Sambrook et al., supra), with 1-2 μg of plasmid DNA, the cells were trypsinized and replated in multiwell plastic dishes (16 or 35 mm diameter, Costar, Cambridge, Mass.) at a cell concentration of 5×10^4 cells/cm^2). […] After continuing culture for another 48 h, radiorecepter assays were performed. The culture medium was replaced with buffer containing 50 mM Tris-HCL (pH 7.7), 100 mM NaCl, 2 mM CaCl2, 5 mM KCL, 0.5% heat-inactivated fetal bovine serum (GIBCO), and 5% heat-inactivated horse serum (KC Biological Inc., Lenexa, Kans.) immediately before studies were initiated.\nIncubations were terminated by aspirating the buffer, and repeatedly (×3) washing the culture dishes, containing the adherent cells with chilled 0.9% NaCl solution, over a 15 sec period. Cell-bound radioactivity was recovered by the sequential addition (×3) of 1 N NaOH (200 μl) to each well. After 30 min at room temperature, the NaOH was transferred to a glass tube. A second and third extraction with 1 N NaOH (200 μl) were combined with the first, and the total radioactivity was counted in a γ-spectrometer (Packard Instruments, Downers Grove, Ill.)."}, "[2]": {"target": "T1, opossum kidney PTH/PTHrP receptor clone, OK-H", "experiment": "Intracellular free calcium, COS cells expressing OK-H", "type": "cell-based", "conditions": "FIG. 10, smaller extent, or not at all, compared with OK-O or R15B", "experimental": "Measurements of intracellular calcium levels in cells transfected with PTH/PTHrP receptor cDNAs were performed using Fura-2 AM (acetomethoxy ester of Fura-2, Molecular Probes Inc., Eugene, Oreg.) loaded cells. Details of the methodology are:\nCoverslips plated with COS cells were incubated in Fura-2 AM loading buffer containing, in mM: HEPES (N-[2-Hydroxyethyl]piperazine-N′-[2-ethanesulfonic acid]), 20; CaCl2, 1; KCl 5; NaCl, 145; MgSO4, 0.5; NaHCO3, 25; K2HPO4, 1.4; glucose, 10; and Fura-2 AM 91-(2-5′-carboxyoxazol-2′-yl)-6-aminobenzofuran-5oxy-(2′-amino-5′-methylphenoxy)ethane-N,N,N′,N′-tetraaecetic acid acetomethoxy ester), 0.5; at 37° C. at pH7.4, aerated with 95% air and 5% CO2 for 45 minutes. Cells loaded with Fura-2 AM were then washed with a modified Krebs-Heinseleit (KH) buffer containing, in mM: HEPES, 20; CaCl2, 1; KCl, 5; NaCl, 145; MgSO4, 0.5; Na2HPO4, 1; glucose, 5; pH7.4. To check that cleavage of the ester occurred, the excitation spectra after different times of Fura-2 AM incubation were measured. […]\nTo measure fluorescence of individual cells, the cover slips were placed in a microscope tissue chamber (Biophysica Technologies, Inc., MD). […] Fura-2 fluorescence was excited with a 75 watt Xenon arc lamp placed at the focal point of a condenser (Photon Technologies International (PTI) Inc., NJ). […]"}},
  "data": [
    {"substance": "[Nle^8,18, Tyr^34]bPTH(1-34)amide", "values": [
      {"measurement": "inhibition of 125I-PTHrP binding by competitor", "setting": "[1]", "value": "inhibited"},
      {"measurement": "increase in concentration of intracellular free calcium (mean)", "setting": "[2]", "value": 39, "unit": "nM"}
    ]}
  ]
}
